Bridge positions count the residues as written; N and C are the ends. Square brackets hold non-standard residues; d marks the D form. Peptide text beside a SMILES is read from it. * marks the point of attachment. X1 = CC[C@H](C)CCCCC(=O)*; Dab = NCC[C@H](N)C(=O)O
Assays:
[1] = tested on: carbapenem resistant A. baumannii (CRAB); experiment: Clinical/microbiological outcome of CMS/Colistin treatment; format: in vivo, human (critically ill ICU patients)
Procedure: Microbiology testing was performed by the university’s Department of Microbiology. Samples included regular swab testing for screening purposes (nasal, inguinal, anal, tracheal) and specific testing of blood cultures, wound samples for detection of tissue infection, bronchoalveolar lavage (BAL) fluid and urine.

[2] = cited from earlier work; for elimination by prolonged intermittent RRT: ref Schmidt et al. [24]
From the text: Colistin was isolated from Bacillus polymyxa subsp. colistinus and consists of a cyclic heptapeptide and a tripeptide side chain acetylated at the N-terminus by a fatty acid moiety. Earlier commercially available Colistin consisted of a mixture of several chemically related subcomponents, including the two major components Colistin A and Colistin B, with a known, concentration-dependent (nephro-, neuro-, oto-) toxicity. […] Following par ... || While CMS is excreted primarily via the kidneys, Colistin elimination pathways remain unclear. […] We were able to calculate elimination half-life for Colistin in 6 out of 8 patients. In our cohort, elimination half-time was greatly extended to a mean of 22.0 h (Figure 2A). […] Subsequently CRRT became necessary due to sustained renal failu ...

[3] = clinical; format: in vivo, human (critically ill ICU patients); conditions: for t1/2 of Colistin: first-order fit
Procedure: (§1) Blood samples were immediately centrifuged and refrigerated.
While CMS is excreted primarily via the kidneys, Colistin elimination pathways remain unclear. […] We were able to calculate elimination half-life for Colistin in 6 out of 8 patients. In our cohort, elimination half-time was greatly extended to a mean of 22.0 h (Figure 2A). The individual half-life kinetics, including details on curve fitting, are provided in the Supplementary Materials (Supplementary Materials “Elimination half times of Colistin” Figures S1–S6). Individual elimination kinetics followed a first-order kinetic. In one patient (Patient 2), we established CRRT in the midst of the elimination time course. This allowed us to forward project kinetics without CRRT and backwards interpolate kinetics with CRRT. […] The amount of available CMS relevantly impacts upon Colistin levels, since CMS acts as a pro-drug. Thus, elimination of CMS is key to reduce Colistin plasma levels whereas CMS accumulation is the source for Colistin build up. CMS elimination can be rapidly affected by changes of renal function and distribution volume. CMS trough levels might indicate potential accumulation of CMS and subsequent accumulation of Colistin. This is of potential relevance when renal CMS elimination might be impaired.
Extensive Therapeutic Drug Monitoring Of
Supplemental material 1 – elimination half times of Colistin
Figure S1: plasma levels of Colistin after cessation of CMS administration. (A) linear
scaling of colistin plasma levels in [mg/L]; fit of an 1st decay elimination curve, y =
1,5111e-0,029x, R2= 0.97, p<0.001; (B) linear scaling colistin plasma levels in [mg/L] after
(also on this page, place not known: 1 st Colistin [mg/L] ln (Colistin [mg/L]) time [h] time [h] (A) (B))
(1 picture or pasted object on this page, not shown here)

[4] = Therapeutic drug monitoring of CMS and Colistin plasma levels by HPLC-MS/MS
Procedure: Eight critically ill patients, some of them under renal replacement therapy (continuous venovenous hemodialysis (CVVHD), intermittent HD (IHD)), infected with gram negative MDR pathogens were treated with CMS. Daily measurements of serum creatinine levels and estimation of glomerular filtration rate using the CKD-EPI Creatinine (eGFR CKD-EPI) equation [16] were used to monitor renal function. Samples were collected multiple times daily prior to/after every dose of CMS for trough/peak level determination of CMS and Colistin. After termination of the Colistin treatment course, samples were derived from the individual patient, to ensure complete and timely removal of Colistin. Blood samples were immediately centrifuged and refrigerated. The plasma was frozen and kept at −20 °C until analysis. After analysis samples were kept at −80 °C for long term storage.
We aimed for target Colistin serum levels of >2 mg/L in patients suffering from A. baumannii infection alone, or >4 mg/L in patients with singular Pseudomonas infections or combined infections. Dosing was done with or without a loading dose of 6–9 million international units (IU) Colistin and subsequent doses of either 3 × 2 million IU/day, 3 × 3 million IU/day, 3 × 4 million IU or 2 × 4.5 million IU, as indicated.
A total of 50 μL of plasma samples, calibrators and controls were precipitated with 200 μL of ice cold isopropanol containing 0.5 μg/mL polymyxin B as internal standard and 0.02% TFA. After 10 min at −20 °C, centrifuging 5 min with 20,000 g at 4 °C, 100 μL of the supernatant was diluted with 400 μL of the appropriate solvent (water or 30% DMSO in water respectively) and put into the auto sampler at 4 °C. LC-MS/MS system: Dionex UltiMate 3000 XRS autosampler, XRS quaternary UHPLC pump, RS Column compartment. Column used: Aeris Peptide 1.7 μm XB-C18 2.1 × 100 mm (Phenomenex), 40 °C. Mobile phases: Gradient starting with 19% lcms-grade acetonitrile (Baker) and 0.05% TFA (Sigma) in water (Milli-Q) to 40% within 1.6 min at a flow rate of 500 μL/min. Mass spectrometer: TSQ-Vantage triple quad mass spectrometer (Thermo Fisher Scientific, San Jose, CA, USA), HESI-source, positive electrospray ionization mode, settings: ionization voltage 3500 V, vaporizer temperature 500 °C, sheath gas flow 40 (arb), auxiliary gas flow 15 (arb), capillary temperature 200 °C and declustering voltage 10 V. For multiple reaction monitoring (MRM), argon was used as collision gas at a pressure of 1.1 × 10^−3 Torr. Doubly charged parent ions of Colistins (578.5/100.9, 585.4/100.9) and polymyxin B (602.4/100.9) were used for fragmentation and the product ions and collision energies have been optimized for best intensities. A detailed procedure protocol including description of standardization, sample preparation, sample stability etc., is available upon request.

[5] = set-up: species or system human (critically ill ICU patients); conditions: in vivo
From the text: as §1

CC[C@H](C)CCCCC(=O)N[C@@H](CCN)C(=O)N[C@H](C(=O)N[C@@H](CCN)C(=O)N[C@H]1CCNC(=O)[C@H]([C@@H](C)O)NC(=O)[C@H](CCN)NC(=O)[C@H](CCN)NC(=O)[C@H](CC(C)C)NC(=O)[C@@H](CC(C)C)NC(=O)[C@H](CCN)NC1=O)[C@@H](C)O [Colistin] (X1-[Dab]T[Dab][Dab][Dab][dL]L[Dab][Dab]T; lactam 4-C)
result of treatment ([1]; Patient 1, CRAB wound infection, 3 × 3 million IU CMS, 7 days, colonization persisted): eradication of the CRAB wound infection was achieved
result of treatment ([1]; Patient 2, CRAB bloodstream, wound and pulmonary infection, colonization and pulmonary infection remained): cured the bloodstream infection
result of treatment ([1]; Patient 6, first treatment cycle, bloodstream and pulmonary CRAB infection): bloodstream infection was cured but colonization persisted
elimination by prolonged intermittent RRT [2]: up to 50%
t1/2 of Colistin ([3]; Patient 1, eGFR 119 mL/min/1.73m^2, RRT none, R2 = 0.97): 23.6 h
t1/2 of Colistin ([3]; Patient 2, eGFR 27 mL/min/1.73m^2, RRT none, R2 = 0.99): 23.43 h
t1/2 of Colistin ([3]; Patient 4, eGFR 58 mL/min/1.73m^2, RRT CVVHDF, R2 = 0.996): 19.5 h
t1/2 of Colistin ([3]; Patient 5, eGFR 59 mL/min/1.73m^2, RRT IHD, R2 = 0.98): 16.5 h
t1/2 of Colistin ([3]; Patient 6, eGFR 99 mL/min/1.73m^2, RRT CVVHDF, R2 = 0.91): 30.9 h
t1/2 of Colistin ([3]; Patient 8, eGFR 51 mL/min/1.73m^2, RRT IHD, R2 = 0.999): 17.9 h
half-life ([3]; human, in vivo, mean of 6 out of 8 patients, plasma after end of CMS treatment, first-order kinetic, read-out: elimination half-time of Colistin, mean (converted)): 22 h
time to Colistin levels >2 mg/L after dose increase ([4]; Patient 2, dose increased from 3 × 2 to 3 × 4 million IU): 48 h
time to sufficient Colistin levels ([4]; Patient 4, loading dose 9 million IU, then 3 × 3 million IU CMS daily, target 4 mg/L): eight
time to target Css,avg of ~4 mg/L after dose increase ([4]; Patient 4, under CVVHDF, 3 × 4 million IU per day): four
time to Colistin plasma levels between 3–4 mg/L ([4]; Patient 6, second treatment cycle, loading dose 9 million IU, then 3 million IU CMS three times a day): 8 to 16 h
time to target Colistin plasma levels ([4]; Patient 7, second treatment cycle, loading dose 9 million IU, 4.5 million IU twice daily, CVVHDF): three
accumulation in plasma ([4]; Patient 8, IHD-adjusted dosing with loading dose of 9 million IU, CMS stopped after 3 days): rapid accumulation
level at 48 h ([4]; human, in vivo): > 2000 ng/mL
level at 96 h ([4]; human, in vivo): ~4000 ng/mL
level at 720 h ([4]; human, in vivo): < 2000 ng/mL
mean Colistin peak level ([4]; plasma, sampled 30 min after CMS injection, all patients pooled, mean (±SD), n = 383, HPLC-MS/MS, unit not given): 3.5 (±1.3, n = 383)
mean Colistin trough level ([4]; plasma, sampled immediately prior to CMS injection, all patients pooled, mean (±SD), n = 386, HPLC-MS/MS, unit not given): 3.45 (±1.3, n = 386)

Colistin methanosulfate [CMS]
renal function (eGFR) under treatment [5]: gradual decline of renal function
result of treatment ([1]; Patient 3, CRAB bloodstream and wound infection, after dose increase to 3 × 4 million IU): eradication of both bloodstream and wound infection
result of treatment ([1]; Patient 4, in combination with surgical focus eradication, MDR Pseudomonas infection and colonization persisted): the CRAB infection was eliminated
result of treatment ([1]; Patient 5, 3 × 4 million IU, colonization with CRAB persisted): successfully eradicated CRAB from the bloodstream and from pulmonary samples
result of treatment ([1]; Patient 6, second treatment cycle, recurrent CRAB bloodstream infection, blood stream samples): eradication of CRAB within 3 days of treatment
result of treatment ([1]; Patient 7, first treatment cycle, 6 days of CMS): successful eradication of CRAB from wound samples
result of treatment ([1]; Patient 7, second treatment cycle, 4.5 million IU twice daily, resistant colonization remained): the bloodstream infection was successfully eradicated
portion of CMS undergoing renal excretion [2]: about two thirds
elimination by prolonged intermittent RRT [2]: up to 50%
mean CMS trough level ([4]; in vivo): 1.6 mg/L
mean CMS peak level ([4]; plasma, sampled 30 min after CMS injection, all patients pooled, mean (±SD), n = 381, HPLC-MS/MS, unit not given): 8.7 (±4.1, n = 381)

— paper PMC7143967, “Extensive Therapeutic Drug Monitoring of Colistin in Critically Ill Patients Reveals Undetected Risks” (Microorganisms, 2020)
